These results are taken from ChEMBL document CHEMBL1201862, “PubChem BioAssay data set” (2004).

Assay [1] has as its target Protein-tyrosine kinase 2-beta (Homo sapiens, UniProt Q14289).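 Also: potency of inhibitors of PYK2 kinase phosphorylation of poly-GT substrate.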
The next assay concerns Vero. The experiment in a line: viability of Vero cells under compound – cytotoxicity control for flavivirus capping enzyme inhibitors (AID 588742). The assay is classed as functional. To be noted: Chlorocebus sabaeus.
The test system of another assay is INS1. The assay is described as follows: INS-1E survival protection against cytokine death – cell-based, luminescence, retest, dose response (AID 449756).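 Also: cell death triggered by IL-1 beta plus TNF-alpha plus IFN-gamma mixture; protective hits raise ATP signal compared with cytokine alone wells.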 The assay is classed as functional. To be noted: Rattus norvegicus.
The nature of assay [2]: viability of HCT116 lacking mutant beta-catenin – cell-based, human colon tumor, dose response (AID 1045).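 Also: HCT116 colon tumor cells with beta catenin knocked out; cells exposed to compound for 60 hours.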 The assay is classed as functional.
Assay [3] is described as follows: viability of PTEN-deleted HCT116 cells – cell-based, HCT116 PTEN knockout, dose response (AID 1047).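 Also: HCT116 colon tumor cells with PTEN knocked out; cells exposed to compound for 60 hours before readout.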 The assay is classed as functional.
Assay [4] addresses T1, Mannose-6-phosphate isomerase (Homo sapiens, UniProt P34949).
T1 sequence (P34949 whole entry): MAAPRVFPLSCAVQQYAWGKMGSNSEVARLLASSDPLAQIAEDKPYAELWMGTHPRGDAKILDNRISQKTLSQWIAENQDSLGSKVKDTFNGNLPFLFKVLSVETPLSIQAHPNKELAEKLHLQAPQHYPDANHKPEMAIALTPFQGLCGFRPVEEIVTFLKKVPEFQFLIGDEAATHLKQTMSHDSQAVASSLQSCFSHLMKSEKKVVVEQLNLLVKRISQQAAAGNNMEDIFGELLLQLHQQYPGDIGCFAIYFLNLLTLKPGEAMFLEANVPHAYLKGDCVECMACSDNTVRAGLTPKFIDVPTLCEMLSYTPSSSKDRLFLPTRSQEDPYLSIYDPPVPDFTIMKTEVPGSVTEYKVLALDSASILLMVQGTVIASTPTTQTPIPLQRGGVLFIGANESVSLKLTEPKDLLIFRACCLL
The assay is described as follows: MPI inhibition at elevated mannose 6-phosphate – biochemical, fluorescence intensity, high mannose 6-phosphate, primary screen (AID 1220).

Assay [5] in a line: Trypanosoma cruzi growth suppression in host cells – NIH3T3 host cells, beta-gal luminescence, confirmation (AID 2044).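 Also: intracellular parasites grown in NIH/3T3 mouse fibroblasts as host cells; luminescent beta-galactosidase reporter signal from transgenic T. cruzi replicating inside host cells; inhibitors lower the luminescence signal.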 Format: functional, cell-based.
For another assay, the target named is Genome polyprotein (dengue virus type 2, UniProt P29990). The assay is described as follows: flavivirus cap methylation enzyme inhibition – biochemical, confirmation dose response, primary screen (AID 588689). Format: functional.
The nature of assay [6]: NIH3T3 cell viability loss – ATP luminescence, mouse fibroblasts, counter-screen, dose response (AID 2010).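 Also: cells exposed to compound for about 90 hours before reading.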 The assay is classed as functional, cell-based. On the technique in general: A counterscreen serves to expose hits that act by an unwanted route or on another target.
In assay [7] the target is Hepatocyte nuclear factor 4-alpha (Homo sapiens, UniProt P41235). The assay is classed as functional, cell-based.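 Also: biochemical luminescence-based dose-response counterscreen measuring inhibition of HNF4 dimerization, run alongside a screen for blockers of ABHD5–perilipin-5 interaction; split luciferase complementation of HNF4 fusion proteins in cell lysate measuring dimerization.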
In another assay the target is T2, Hexokinase HKDC1 (Homo sapiens, UniProt Q2TB90).
T2 sequence (Q2TB90 whole entry): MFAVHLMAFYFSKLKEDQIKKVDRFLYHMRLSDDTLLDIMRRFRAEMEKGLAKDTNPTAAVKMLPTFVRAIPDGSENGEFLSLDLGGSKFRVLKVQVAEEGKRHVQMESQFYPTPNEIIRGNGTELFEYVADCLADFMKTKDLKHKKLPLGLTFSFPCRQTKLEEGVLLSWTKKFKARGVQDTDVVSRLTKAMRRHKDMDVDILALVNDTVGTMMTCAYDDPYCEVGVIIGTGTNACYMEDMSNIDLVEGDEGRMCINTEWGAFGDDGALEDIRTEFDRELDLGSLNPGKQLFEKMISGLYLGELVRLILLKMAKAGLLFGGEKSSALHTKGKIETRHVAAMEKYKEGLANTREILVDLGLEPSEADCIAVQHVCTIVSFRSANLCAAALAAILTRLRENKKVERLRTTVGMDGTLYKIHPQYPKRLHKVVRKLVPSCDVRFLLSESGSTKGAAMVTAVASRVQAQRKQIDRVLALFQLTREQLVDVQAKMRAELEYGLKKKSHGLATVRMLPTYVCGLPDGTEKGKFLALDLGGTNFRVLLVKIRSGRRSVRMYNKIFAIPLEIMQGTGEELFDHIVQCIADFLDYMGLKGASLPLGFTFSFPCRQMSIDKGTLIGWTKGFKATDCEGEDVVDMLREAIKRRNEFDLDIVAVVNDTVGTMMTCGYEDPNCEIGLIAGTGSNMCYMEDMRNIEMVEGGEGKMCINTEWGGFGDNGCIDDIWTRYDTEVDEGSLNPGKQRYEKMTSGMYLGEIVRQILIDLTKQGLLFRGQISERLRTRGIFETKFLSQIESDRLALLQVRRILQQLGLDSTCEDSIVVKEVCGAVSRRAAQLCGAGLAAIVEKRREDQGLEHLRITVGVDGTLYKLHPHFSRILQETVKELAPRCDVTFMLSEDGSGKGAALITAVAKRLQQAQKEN
The assay is described as follows: inhibition of HKDC1 glucose phosphorylation – biochemical, W721R variant, dose response (AID 504729). The assay is classed as functional.

Assay [8] has as its target Beta-2 adrenergic receptor (Homo sapiens, UniProt P07550). The experiment in a line: ADRB2 activation measured by internalization – cell-based, FAP fluorogen, flow cytometry, cherry pick 1, dose response (AID 588763). Format: functional. Background: Flow cytometry measures light scatter and fluorescence of single cells or particles in a stream.
In assay [9] the target is T3, G-protein coupled receptor 35 (Homo sapiens, UniProt Q9HC97). The assay is described as follows: inhibition of zaprinast-stimulated GPR35 beta-arrestin translocation – imaging, U2OS, beta-arrestin-GFP, zaprinast agonist, primary screen (AID 2058).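 Also: antagonist potency meaning inhibition of agonist-induced arrestin redistribution.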 Format: functional.
Assay [10] has as its target G-protein coupled receptor 55 (Homo sapiens, UniProt Q9Y2T6). The experiment in a line: blockers of GPR55 signalling, imaged – imaging, image-based, counter-screen for GPR35 antagonist project, SAR follow-up (AID 2397). The assay is classed as functional.
Assay [11] has as its target T3, G-protein coupled receptor 35. The experiment in a line: SAR Analysis for the identification of Selective Antagonists of ERK1/2 Activity in GPR35-Overexpressing U2OS Cells. [Related pubchem assays: 2079, 2058 ]. Format: functional, cell-based.
The next assay deals with CHO. The experiment in a line: CHO cell viability loss, potency – luminescence, cytotoxicity control for TLR9-MyD88 binding inhibitor project, dose response (AID 588339).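 Also: CHO cells stably coexpressing TLR9 and MyD88 fusions from primary screen; compound exposure lasted 48 hours before viability readout.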 The assay is classed as functional, cell-based, hamster. The settings on record: Cricetulus griseus.
Assay [12] addresses Glucose-6-phosphate 1-dehydrogenase (Homo sapiens, UniProt P11413). The experiment in a line: inhibition of Homo sapiens G6PD, dose series – biochemical, fluorescence, selectivity assay for P. falciparum G6PD inhibitor project, dose response (AID 504792). Format: functional.
The next assay has as its target Beta Lactamase (Pseudomonas aeruginosa, UniProt Q932Y6). The assay is described as follows: BLA reporter interference, concentration series – BLA reporter cells, FRET fluorescence, artefact control for TLR9-MyD88 binding inhibitor project, dose response (AID 588341).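 Also: cell based assay in CHO-K1 cells stably expressing beta-lactamase.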 The assay is classed as cell-based.
Assay [13] addresses V-type proton ATPase subunit c' (Saccharomyces cerevisiae S288c, UniProt P32842). The assay is described as follows: Dose Response of Small Molecules that Regulate V-ATPase Proton Transport in Yeast using pHLuorin, Cherry Pick 2. The assay is classed as functional. To be noted: read-out: EC50_MICROM.

By IC50 is commonly meant the concentration that inhibits the measured activity by half. Broadly, the CC50 is the concentration that lowers cell viability or growth by half. By AC50 is commonly meant the midpoint of the concentration-response curve, whichever way the signal moves.

The source made the active and inactive calls.

T3 sequence (Q9HC97 whole entry): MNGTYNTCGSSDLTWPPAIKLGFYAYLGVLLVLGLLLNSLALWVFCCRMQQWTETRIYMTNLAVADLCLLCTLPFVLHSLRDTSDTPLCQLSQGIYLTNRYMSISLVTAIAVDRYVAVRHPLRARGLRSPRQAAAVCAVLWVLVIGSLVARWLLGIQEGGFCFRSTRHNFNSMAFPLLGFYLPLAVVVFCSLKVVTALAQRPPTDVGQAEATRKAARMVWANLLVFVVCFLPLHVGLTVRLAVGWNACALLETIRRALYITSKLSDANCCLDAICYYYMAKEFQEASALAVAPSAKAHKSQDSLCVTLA
Beta Lactamase, sequence (Q932Y6 whole entry): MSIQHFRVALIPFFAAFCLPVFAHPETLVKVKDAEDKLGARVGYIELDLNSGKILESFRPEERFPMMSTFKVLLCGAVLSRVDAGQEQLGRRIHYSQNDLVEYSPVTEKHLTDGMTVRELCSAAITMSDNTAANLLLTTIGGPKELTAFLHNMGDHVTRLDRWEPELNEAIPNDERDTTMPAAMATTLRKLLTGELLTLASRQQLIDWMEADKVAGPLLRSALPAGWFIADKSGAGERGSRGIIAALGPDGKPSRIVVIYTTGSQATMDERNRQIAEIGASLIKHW
Protein-tyrosine kinase 2-beta, sequence (Q14289 whole entry): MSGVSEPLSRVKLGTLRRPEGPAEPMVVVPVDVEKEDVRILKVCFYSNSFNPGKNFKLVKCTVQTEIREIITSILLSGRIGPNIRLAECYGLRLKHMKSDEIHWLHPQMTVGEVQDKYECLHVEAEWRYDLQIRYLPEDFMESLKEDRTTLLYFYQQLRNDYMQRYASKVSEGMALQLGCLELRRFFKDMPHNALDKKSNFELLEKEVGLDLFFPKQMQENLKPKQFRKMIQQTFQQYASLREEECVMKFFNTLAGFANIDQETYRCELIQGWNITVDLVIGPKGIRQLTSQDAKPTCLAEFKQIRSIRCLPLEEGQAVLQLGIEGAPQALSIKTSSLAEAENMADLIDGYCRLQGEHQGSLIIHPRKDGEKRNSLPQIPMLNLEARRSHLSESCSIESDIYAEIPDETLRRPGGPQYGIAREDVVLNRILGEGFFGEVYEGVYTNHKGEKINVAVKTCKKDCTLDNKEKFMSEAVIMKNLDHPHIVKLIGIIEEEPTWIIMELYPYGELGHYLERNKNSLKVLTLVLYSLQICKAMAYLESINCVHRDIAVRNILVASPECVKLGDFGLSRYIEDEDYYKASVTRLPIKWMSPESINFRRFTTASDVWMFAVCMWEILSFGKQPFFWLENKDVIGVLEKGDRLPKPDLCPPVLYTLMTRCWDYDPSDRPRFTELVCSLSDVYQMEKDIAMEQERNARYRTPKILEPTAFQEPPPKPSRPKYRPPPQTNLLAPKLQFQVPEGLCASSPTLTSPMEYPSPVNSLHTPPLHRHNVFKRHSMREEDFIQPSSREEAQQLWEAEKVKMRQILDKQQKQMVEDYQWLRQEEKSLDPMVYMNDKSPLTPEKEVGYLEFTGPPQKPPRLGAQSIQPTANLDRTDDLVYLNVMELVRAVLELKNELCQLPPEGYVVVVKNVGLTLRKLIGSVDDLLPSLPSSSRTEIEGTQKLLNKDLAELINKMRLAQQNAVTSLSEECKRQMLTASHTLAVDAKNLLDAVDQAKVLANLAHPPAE
G-protein coupled receptor 55, sequence (Q9Y2T6 whole entry): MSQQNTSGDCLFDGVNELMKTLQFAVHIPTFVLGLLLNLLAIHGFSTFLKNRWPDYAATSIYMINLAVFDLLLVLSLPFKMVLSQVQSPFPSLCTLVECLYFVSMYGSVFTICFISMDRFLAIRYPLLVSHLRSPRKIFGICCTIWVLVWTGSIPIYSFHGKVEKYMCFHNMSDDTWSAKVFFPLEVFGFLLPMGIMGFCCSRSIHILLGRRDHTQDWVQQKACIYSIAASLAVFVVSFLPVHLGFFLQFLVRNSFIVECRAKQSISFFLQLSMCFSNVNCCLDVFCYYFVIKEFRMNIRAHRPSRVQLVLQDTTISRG
V-type proton ATPase subunit c', sequence (P32842 whole entry): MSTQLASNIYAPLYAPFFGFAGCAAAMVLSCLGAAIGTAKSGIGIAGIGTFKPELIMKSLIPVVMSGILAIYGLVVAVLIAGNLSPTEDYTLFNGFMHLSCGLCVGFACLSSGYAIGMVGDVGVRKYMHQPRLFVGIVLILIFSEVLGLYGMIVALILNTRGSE
Glucose-6-phosphate 1-dehydrogenase, sequence (P11413 whole entry): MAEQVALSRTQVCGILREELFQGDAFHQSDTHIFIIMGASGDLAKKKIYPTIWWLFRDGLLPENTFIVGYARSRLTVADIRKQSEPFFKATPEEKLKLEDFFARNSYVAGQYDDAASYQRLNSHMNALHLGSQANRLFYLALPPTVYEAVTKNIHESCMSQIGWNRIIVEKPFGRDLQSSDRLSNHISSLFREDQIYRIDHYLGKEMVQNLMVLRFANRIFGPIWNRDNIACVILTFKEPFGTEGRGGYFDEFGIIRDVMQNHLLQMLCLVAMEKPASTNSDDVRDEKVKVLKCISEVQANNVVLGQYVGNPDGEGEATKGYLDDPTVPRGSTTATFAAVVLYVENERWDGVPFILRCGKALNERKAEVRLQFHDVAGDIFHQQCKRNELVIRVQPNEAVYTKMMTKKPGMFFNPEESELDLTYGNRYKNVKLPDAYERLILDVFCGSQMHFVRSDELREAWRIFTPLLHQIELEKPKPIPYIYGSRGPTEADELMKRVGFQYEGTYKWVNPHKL
Genome polyprotein, sequence (P29990 2492-3391 limits assumed): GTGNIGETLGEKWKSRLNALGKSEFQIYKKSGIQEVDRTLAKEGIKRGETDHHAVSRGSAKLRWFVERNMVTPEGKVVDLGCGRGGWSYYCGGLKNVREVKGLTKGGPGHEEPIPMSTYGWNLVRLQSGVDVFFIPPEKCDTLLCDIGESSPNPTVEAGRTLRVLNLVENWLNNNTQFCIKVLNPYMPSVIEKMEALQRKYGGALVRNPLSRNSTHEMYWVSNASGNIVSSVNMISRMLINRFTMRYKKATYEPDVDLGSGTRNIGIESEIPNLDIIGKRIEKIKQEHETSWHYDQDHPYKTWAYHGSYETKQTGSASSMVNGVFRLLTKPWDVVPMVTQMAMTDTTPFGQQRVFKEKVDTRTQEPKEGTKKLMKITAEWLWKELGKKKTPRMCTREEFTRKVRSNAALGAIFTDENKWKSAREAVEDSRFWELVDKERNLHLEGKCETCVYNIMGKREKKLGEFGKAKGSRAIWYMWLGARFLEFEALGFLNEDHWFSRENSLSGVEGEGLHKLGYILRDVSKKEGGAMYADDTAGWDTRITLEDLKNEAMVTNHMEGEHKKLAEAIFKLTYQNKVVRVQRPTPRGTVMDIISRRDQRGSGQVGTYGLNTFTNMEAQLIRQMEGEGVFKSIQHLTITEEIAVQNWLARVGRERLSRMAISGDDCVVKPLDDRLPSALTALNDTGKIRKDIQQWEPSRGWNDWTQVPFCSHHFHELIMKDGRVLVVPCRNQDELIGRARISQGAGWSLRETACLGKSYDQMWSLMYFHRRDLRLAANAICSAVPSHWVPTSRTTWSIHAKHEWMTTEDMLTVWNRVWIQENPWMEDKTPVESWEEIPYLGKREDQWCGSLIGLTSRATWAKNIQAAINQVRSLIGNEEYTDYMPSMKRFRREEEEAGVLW
Beta-2 adrenergic receptor, sequence (P07550 whole entry): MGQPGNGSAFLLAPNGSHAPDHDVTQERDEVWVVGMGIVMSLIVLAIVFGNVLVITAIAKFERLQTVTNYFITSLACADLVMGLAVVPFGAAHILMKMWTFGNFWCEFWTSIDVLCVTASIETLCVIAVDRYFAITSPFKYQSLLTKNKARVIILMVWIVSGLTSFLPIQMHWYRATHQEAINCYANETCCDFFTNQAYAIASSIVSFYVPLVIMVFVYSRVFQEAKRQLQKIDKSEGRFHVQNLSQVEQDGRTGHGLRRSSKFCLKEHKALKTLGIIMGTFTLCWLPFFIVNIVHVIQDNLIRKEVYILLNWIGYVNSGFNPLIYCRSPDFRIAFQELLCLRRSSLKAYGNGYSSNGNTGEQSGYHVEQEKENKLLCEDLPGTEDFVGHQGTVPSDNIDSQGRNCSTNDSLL
Hepatocyte nuclear factor 4-alpha, sequence (P41235 whole entry, the tested form may be a part): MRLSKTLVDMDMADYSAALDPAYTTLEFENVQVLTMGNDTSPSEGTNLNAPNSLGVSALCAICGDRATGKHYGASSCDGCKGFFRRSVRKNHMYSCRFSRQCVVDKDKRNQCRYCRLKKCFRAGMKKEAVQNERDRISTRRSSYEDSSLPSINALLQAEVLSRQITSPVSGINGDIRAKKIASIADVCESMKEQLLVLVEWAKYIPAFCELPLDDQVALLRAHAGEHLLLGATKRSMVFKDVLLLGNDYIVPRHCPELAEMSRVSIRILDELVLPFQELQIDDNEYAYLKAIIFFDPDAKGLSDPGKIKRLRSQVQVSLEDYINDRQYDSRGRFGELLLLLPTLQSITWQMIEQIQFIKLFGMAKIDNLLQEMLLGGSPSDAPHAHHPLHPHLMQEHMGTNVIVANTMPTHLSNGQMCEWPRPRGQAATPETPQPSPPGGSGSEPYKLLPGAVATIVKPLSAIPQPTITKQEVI

Consider `O=C1C(=O)c2c(C(=O)c3ccccc3)coc2-c2ccccc21`, for which the IC50 in assay [1] was > 69.5 µM (not active); in assay [4] it was 9 µM (active); at Genome polyprotein, 82.3 µM (active); in assay [7], 3.45 µM (active); at Hexokinase HKDC1, 33.4 µM (inactive). The CC50 with Vero is 15.1 µM (active). In addition, the AC50 with INS1 is 7.82 µM (active). In addition, the EC50 in assay [2] is 8.33 µM (active); in [3], 8.45 µM (active); in [5], 3.54 µM (active); in [6], 9.47 µM (active).
Regarding `O=C(Nc1ccc2nc(SCc3ccc(Cl)cc3)sc2c1)c1ccccc1C(=O)N1CCOCC1`, the EC50 in [8] is 1.74 µM (active). The IC50 in assay [9] is 0.768 µM (active); in assay [10], > 32 µM (inactive); in assay [11] it was 16.5 µM (not active).
On to `Cc1ccc(S(=O)(=O)C=CS(=O)(=O)c2ccc(C)cc2)cc1`, for which the IC50 was 2.71 µM (active) in the assay on CHO, > 80 µM (inactive) in [12] and 13.6 µM (inactive) on Beta Lactamase. Also, the EC50 in [13] was 3.91 µM (active).
